Reference: patent US4075194A, “Novel synthetic undecapeptide and clinical assay” (Yeda Research and Development Co., Ltd., priority 1976, dated 1978)
Ends that are not written are not given here.

Tests used:
[1] = test system: antisera agglutinating CEA(1-11)-A--L-coated sheep erythrocytes; experiment: Inhibition of passive hemagglutination; assay type: binding; conditions: serum concentration twice that of the hemagglutination titer
Description: Hemagglutination and Inhibition of Hemagglutination. Sheep erythrocytes were treated with formalin, tanned, and coated with the CEA(1-11) peptide or with the conjugates (CEA(1-11)-A--L or CEA(1-11)-BSA, Herbert: Handbook Exp. Immun., Oxford (1964), 720, Blackwell, Sci. Pub.
Passive microhemagglutination tests, Kabat: Structural Concepts in Immun. and Immunochem. (1968), Holt, Reinhart and Winston, Inc., N.Y., were performed on disposable microtiter plates (Cooke Engineering Co., Alexandira, Va.) by 2-fold serial dilutions of antisera in phosphate-buffered saline (0.15 M NaCl-0.01 M sodium phosphate buffer, pH 7.0), containing 0.1% ovalbumin (twice crystallized, Schwarz/Mann). The plates were incubated at room temperature and read after 2 and 4 hr.
In inhibition experiments serial dilutions of the respective inhibitor were allowed to react for 30 min with the antisera (at the last dilution that had given positive agglutination) prior to the addition of the coated erythrocytes. Inhibition results were also read after 2 and 4 hr.

[2] = test system: anti-CEA(1-11)-BSA serum; experiment: Inhibition of inactivation of CEA(1-11)-T4 by anti-CEA(1-11)-BSA serum; assay type: binding, rabbit; conditions: for inhibition of the inactivation of CEA(1-11)-T4: in words
Description: Inactivation and Inhibition of Inactivation of CEA(1-11)-coated T4 Bacteriophage. The preparation of CEA(1-11)-coated T4 bacteriophage was carried out according to the procedure described by Haimovich et al., Biochim. Biophys. Acta 207 (1970) 115, making use of glutaraldehyde as crosslinking agent. The resulting modified bacteriophage preparation was tested for inactivation with anti-CEA(1-11)-BSA serum, by incubation for 21/2 hr at 37° in the presence of different dilutions of the antiserum, and monitoring the surviving phage by subsequent plating with bacteria.
In inhibition experiments the inhibitors were allowed to react at room temperature, overnight, with the amount of antiserum that would have caused approximately 90% inactivation of the bacteriophage conjugate, Haimovich et al. Biochim. Biophys. Acta 207 (1970) 125. The modified bacteriophage was then added to the mixture and the number of surviving phage was determined as described above. The percentage of inhibition was calculated from the extent of inactivation in the presence and in the absence of the inhibitor.

[3] = Immunization of rabbits, antibody production; assay type: in vivo, rabbit; conditions: intradermal in complete Freund's adjuvant, in words
Description: Immunization Procedure. Antisera against the CEA(1-11) peptide were obtained by immunizing rabbits with CEA(1-11) as the free peptide and with the two conjugates CEA(1-11)-A--L and CEA(1-11)-BSA. The rabbits were immunized by multisite intradermal injections in complete Freund's adjuvant. Each rabbit received two injections of 4 mg at 2-week intervals and was subsequently bled weekly from the marginal vein, starting 1 week after the last injection.

Molecule	lowest concentration of inhibitor that still prevents agglutination ([1]; antiserum against CEA(1-11)-A--L)	lowest concentration of inhibitor that still prevents agglutination ([1]; antiserum against CEA(1-11)-BSA)	lowest concentration of inhibitor that still prevents agglutination ([1]; antiserum against Crude CEA)	lowest concentration of inhibitor that still prevents agglutination ([1]; antiserum against Pure CEA)	inhibition of the inactivation of CEA(1-11)-T4 [2]	Inhibition (%) ([2]; inhibitor concentration 0.001 μg/ml)	Inhibition (%) ([2]; inhibitor concentration 0.0033 μg/ml)	Inhibition (%) ([2]; inhibitor concentration 0.01 μg/ml)	Inhibition (%) ([2]; inhibitor concentration 0.033 μg/ml)	Inhibition (%) ([2]; inhibitor concentration 0.1 μg/ml)	Inhibition (%) ([2]; inhibitor concentration 0.33 μg/ml)	Inhibition (%) ([2]; inhibitor concentration 1 μg/ml)	Inhibition (%) ([2]; inhibitor concentration 3 μg/ml)	antibody production on immunization [3]
LNFPTSEITLK [CEA(1-11), synthetic undecapeptide corresponding to the first eleven NH2-terminal residues of CEA, with leucine replacing valine in the 11-position]	1 µg/mL	10 µg/mL	100 µg/mL	1 µg/mL	could be inhibited	0%	38%	64%	82%	92%	100%	98%	100%	antisera of low titer
Pure CEA: carcinoembryonic antigen purified from colonic tumor tissue by perchloric acid extraction, chromatography and block electrophoresis (protein, UniProt P06731 35-685, looked up) Cell adhesion molecule CEACAM5: KLTIESTPFNVAEGKEVLLLVHNLPQHLFGYSWYKGERVDGNRQIIGYVIGTQQATPGPAYSGREIIYPNASLLIQNIIQNDTGFYTLHVIKSDLVNEEATGQFRVYPELPKPSISSNNSKPVEDKDAVAFTCEPETQDATYLWWVNNQSLPVSPRLQLSNGNRTLTLFNVTRNDTASYKCETQNPVSARRSDSVILNVLYGPDAPTISPLNTSYRSGENLNLSCHAASNPPAQYSWFVNGTFQQSTQELFIPNITVNNSGSYTCQAHNSDTGLNRTTVTTITVYAEPPKPFITSNNSNPVEDEDAVALTCEPEIQNTTYLWWVNNQSLPVSPRLQLSNDNRTLTLLSVTRNDVGPYECGIQNELSVDHSDPVILNVLYGPDDPTISPSYTYYRPGVNLSLSCHAASNPPAQYSWLIDGNIQQHTQELFISNITEKNSGLYTCQANNSASGHSRTTVKTITVSAELPKPSISSNNSKPVEDKDAVAFTCEPEAQNTTYLWWVNGQSLPVSPRLQLSNGNRTLTLFNVTRNDARAYVCGIQNSVSANRSDPVTLDVLYGPDTPIISPPDSSYLSGANLNLSCHSASNPSPQYSWRINGIPQQHTQVLFIAKITPNNNGTYACFVSNLATGRNNSIVKSITVSASGTSPGLSA	–	–	–	–	No inhibition	–	–	–	–	–	–	–	–	–
